Experimental data: patent US11412737B2, “Mixtures of beflubutamid or optically enriched forms thereof with a second herbicide” (FMC Corporation, priority 2016, dated 2022)

Columns and labels:
[1] = tested on: Green foxtail (SETVI); test: pre-emergence test, weed control; type: in vivo, Setaria viridis; conditions: pre-emergent, 28 DAT
Procedure: (§1) Test compositions containing the test compounds were diluted with water to provide the appropriate test rate concentrations.
(§2) For pre-emergence testing, four disposable fiber flats (6 inch by 10 inch) for each rate of application of each herbicide solution were filled with top soil, to which seeds of each species were planted in furrows made by a template pressed on the top of the soil. The furrows were covered with soil after planting the seed and were watered well before application of the test compounds.
(§3) Fiber flats designated for treatment were placed in a spray chamber having a static platform and a movable sprayer and the height of the spray nozzle was 10.5 inches above the soil level. Once the sprayer was calibrated using water for spray volume of 30 gallons per acre, flats were sprayed with sprayer at a speed to receive a coverage equivalent of 30 gallons per acre. The application rates are those shown in the Tables below for the individual herbicidal solutions and the herbicide compositions of this invention. The pre-emergence flats were immediately placed in the greenhouse and watered lightly after treatment. Thereafter they were regularly watered and fertilized for the duration of the test.
(§4) The control of weeds was evaluated in each experimental test at 21 for wheat and 28 days after treatment (DAT) for all species. Data were analyzed using Minitab software at 95% confidence interval. The results, shown as an average of the replications, were compared with results observed in untreated control flats in the same tests. Percent control was determined by a method similar to the 0 to 100 rating system disclosed in “Research Methods in Weed Science,” 2nd ed., B. Truelove, Ed.; Southern Weed Science Society; Auburn University, Auburn, Ala., 1977. The rating system is as follows in Table 1.

[2] = tested on: Palmer amaranth (AMAPA); test: post-emergence test, weed control; type: in vivo, Amaranthus palmeri; conditions: post-emergent, 28 DAT, COC 1%, rate g ai/ha by row: r5 94, r6 125, r7 250, r8 1.25, r9 2.5, r10 5, r11 94+1.25, r13 125+1.25, r15 94+2.5, r17 125+2.5, r19 94+5, r21 125+5
Procedure: as §1
(§5) For post-emergence testing, seeds of each species for each rate of application of each herbicide solution were planted in 7.5 cm×7.5 cm plastic pots filled with potting soil. The seeds were germinated and the resulting plants were allowed to grow in a greenhouse until they reached a growth stage, such as height, suitable for testing. […] Pots of post-emergent treated plants were returned to the greenhouse and not watered for 24 hours after treatment. Thereafter they were regularly watered and fertilized for the duration of the test.
(§6) The control of weeds was evaluated in each experimental test at 21 for wheat and 28 days after treatment (DAT) for all species. […] The rating system is as follows in Table 1.

[3] = tested on: redroot pigweed (AMARE); test: post-emergence test, weed control; type: in vivo; conditions: post-emergent, 28 DAT, COC 1%, rate g ai/ha by row: r5 94, r6 125, r7 250, r8 1.25, r9 2.5, r10 5, r11 94+1.25, r13 125+1.25, r15 94+2.5, r17 125+2.5, r19 94+5, r21 125+5
Procedure: as §1, §5, §6

[4] = tested on: Velvetleaf (ABUTH); test: pre-emergence test, weed control; type: in vivo, Abutilon theophrasti; conditions: pre-emergent, 21 DAT, rate g ai/ha by row: r4 94, r5 125, r6 250, r7 125, r8 250, r9 500, r10 94+125, r11 125+125, r12 94+250, r13 125+250, r14 94+500, r15 125+500
Procedure: as §1, §2, §3, §4

| SMILES | percentage of weed control, SETVI ([1]; (+)-BFL >95% e.e., rate g ai/ha by row: r6 62.5, r7 125, r8 62.5, r9 125, r10 222, r11 445, r12 22.5, r13 45, r14 62.5+62.5, r15 125+62.5, r16 62.5+125, r17 125+125, r18 62.5+222, r19 125+222, r20 62.5+445, r21 125+445, r22 62.5+22.5, r23 125+22.5, r24 62.5+45, r25 125+45, 62.5 g ai/ha) | percentage of weed control, SETVI ([1]; (+)-BFL >95% e.e., rate g ai/ha by row: r6 62.5, r7 125, r8 62.5, r9 125, r10 222, r11 445, r12 22.5, r13 45, r14 62.5+62.5, r15 125+62.5, r16 62.5+125, r17 125+125, r18 62.5+222, r19 125+222, r20 62.5+445, r21 125+445, r22 62.5+22.5, r23 125+22.5, r24 62.5+45, r25 125+45, 125 g ai/ha) | percentage of weed control, SETVI ([1]; (−)-BFL >95% e.e., rate g ai/ha by row: r6 62, r7 125, r8 125, r9 250, r10 445, r11 890, r12 45, r13 90, r14 62+125, r15 125+125, r16 62+250, r17 125+250, r18 62+445, r19 125+445, r20 62+890, r21 125+890, r22 62+45, r23 125+45, r24 62+90, r25 125+90, 125 g ai/ha) | percentage of weed control, SETVI ([1]; (−)-BFL >95% e.e., rate g ai/ha by row: r6 62, r7 125, r8 125, r9 250, r10 445, r11 890, r12 45, r13 90, r14 62+125, r15 125+125, r16 62+250, r17 125+250, r18 62+445, r19 125+445, r20 62+890, r21 125+890, r22 62+45, r23 125+45, r24 62+90, r25 125+90, 250 g ai/ha) | percentage of weed control, Palmer amaranth AMAPA ([2]; BFL at 94 g ai/ha) | percentage of weed control, Palmer amaranth AMAPA ([2]; BFL at 125 g ai/ha) | percentage of weed control, Palmer amaranth AMAPA ([2]; BFL at 250 g ai/ha) | percentage of weed control, Redroot pigweed AMARE ([3]; BFL at 94 g ai/ha) | percentage of weed control, Redroot pigweed AMARE ([3]; BFL at 125 g ai/ha) | percentage of weed control, Redroot pigweed AMARE ([3]; BFL at 250 g ai/ha) | percentage of weed control, Velvetleaf ABUTH ([4]; 94 g ai/ha) | percentage of weed control, Velvetleaf ABUTH ([4]; 125 g ai/ha) | percentage of weed control, Velvetleaf ABUTH ([4]; 250 g ai/ha) |
| --- | --- | --- | --- | --- | --- | --- | --- | --- | --- | --- | --- | --- | --- |
| CC1(C)CON(Cc2ccc(Cl)cc2Cl)C1=O [DCI, 2-(2,4-dichlorophenyl)methyl-4,4-dimethyl-3-isoxazolidinone] | 91% | 99% | 98% | 99% | – | – | – | – | – | – | – | – | – |
| CCC(Oc1ccc(F)c(C(F)(F)F)c1)C(=O)NCc1ccccc1 (racemic) [BFL, 2-[4-fluoro-3-(trifluoromethyl)phenoxy]-N-(phenylmethyl)butanamide] | – | – | – | – | 46% | 48% | 53% | 61% | 60% | 86% | 10% | 15% | 14% |
